Experimental data published in article PMC11539907, “Cytotoxicity of norstictic acid derivatives, a depsidone from Ramalina anceps Nyl” (Turkish Journal of Chemistry, 2024).
Entries after “also recorded” stand apart in the source; their conditions may differ. Where two headings read alike, the source gives them in different places.

Experiments:
[1] = test system: MCF7 (breast carcinoma) cells; assay: sulforhodamine B (SRB) cytotoxicity assay, MCF7; format: cell-based; conditions: for selectivity index (SI): GI50 on 3T3 cells divided by GI50 on MCF7; for GI50: Homo sapiens, MCF7 cells, SRB assay, read-out: growth inhibition (GI50)
From the text: (§1) MCF7 (ATCC HTB-22, breast adenocarcinoma), 786-0 (ATCC CRL-1932, renal cell adenocarcinoma), PC-03 (ATCC CRL-1435, prostatic adenocarcinoma), HT-29 (ATCCHTB-38, colorectal adenocarcinoma), and HEP2 (ATCC CCL-23, laryngeal carcinoma) cells donated by Dr. João Ernesto de Carvalho (CPQBA – UNICAMP), and NIH/3T3 cells (ATCC CRL-1658, mouse embryonic fibroblast), purchased from the Rio de Janeiro Cell Bank, were used for the evaluation of cytotoxic activity. Cell maintenance and treatment were performed as described by Freshney. The sulforhodamine B (SRB) assay was carried out according to Brandão et al. and Bogo et al..
(§2) The selectivity index (SI) measures a compound’s ability to target a neoplastic cell line rather than a normal cell line, indicating its potential for use in clinical trials. In the present study, the SI of each substance was calculated as the quotient of its GI50 value for normal NIH/3T3 cells divided by the GI50 value for a neoplastic cell line. SI values greater than 3.0 were considered significant.

[2] = test system: B16-F10 (murine melanoma) cells; assay: sulforhodamine B (SRB) cytotoxicity assay, B16-F10; format: cell-based; conditions: for selectivity index (SI): GI50 on 3T3 cells divided by GI50 on B16-F10; for GI50: Mus musculus, B16-F10 cells, SRB assay, read-out: growth inhibition (GI50)
From the text: [Worded in the source for another cell line; this cell line is reported under the same test.] as §1, §2

[3] = test system: NIH/3T3 (mouse embryonic fibroblast) cells; assay: sulforhodamine B (SRB) cytotoxicity assay, NIH/3T3 normal cells; format: cell-based; conditions: for GI50: Mus musculus, NIH3T3, NIH/3T3 normal cells, SRB assay, read-out: growth inhibition (GI50); for effect on normal cells in words: 3T3 cells
From the text: as §1, §2

[4] = test system: HT-29 (colon carcinoma) cells; assay: sulforhodamine B (SRB) cytotoxicity assay, HT-29; format: cell-based; conditions: for selectivity index (SI): GI50 on 3T3 cells divided by GI50 on HT-29; for GI50: Homo sapiens, HT-29 cells, SRB assay, read-out: growth inhibition (GI50)
From the text: as §1, §2

[5] = test system: tested tumor cells (786-0, MCF7, HT-29, PC-03, HEP2, B16-F10, UACC-62); assay: sulforhodamine B (SRB) cytotoxicity assay, results stated over several cell lines; format: cell-based; conditions: for cytotoxic activity in words: cell lines as named in the quoted words; for selectivity index (SI), range over all tumor cells: all tested tumor cells vs NIH/3T3
From the text: as §1, §2

[6] = test system: PC-03 (prostate carcinoma) cells; assay: sulforhodamine B (SRB) cytotoxicity assay, PC-03; format: cell-based; conditions: for selectivity index (SI): GI50 on 3T3 cells divided by GI50 on PC-03; for GI50: PC-03 cells, SRB assay, read-out: growth inhibition (GI50)
From the text: as §1, §2

[7] = test system: 786-0 (kidney carcinoma) cells; assay: sulforhodamine B (SRB) cytotoxicity assay, 786-0; format: cell-based; conditions: for selectivity index (SI): GI50 on 3T3 cells divided by GI50 on 786-0; for GI50: Homo sapiens, 786-0 cells, SRB assay, read-out: growth inhibition (GI50)
From the text: as §1, §2

[8] = test system: HEP2 (laryngeal carcinoma) cells; assay: sulforhodamine B (SRB) cytotoxicity assay, HEP2; format: cell-based; conditions: for selectivity index (SI): GI50 on 3T3 cells divided by GI50 on HEP2; for GI50: Homo sapiens, HEp-2, HEP2 cells, SRB assay, read-out: growth inhibition (GI50)
From the text: as §1, §2

[9] = test system: UACC-62 (human melanoma) cells; assay: sulforhodamine B (SRB) cytotoxicity assay, UACC-62; format: cell-based; conditions: for selectivity index (SI): GI50 on 3T3 cells divided by GI50 on UACC-62; for GI50: Homo sapiens, UACC-62 cells, SRB assay, read-out: growth inhibition (GI50)
From the text: [Worded in the source for another cell line; this cell line is reported under the same test.] as §1, §2

[10] = test system: UACC-62 (human melanoma) cells; conditions: 3T3 vs UACC-62; ref Brandão et al. (2013); cited from earlier work
[11] = listed as 8′-O-isopropyl-norstictic acid
[12] = all tested tumor cells, read-out: GI50, range over all tumor cells

Row | SMILES | selectivity index (SI) [1] | GI50 [1] [µM] | selectivity index (SI) [2] | GI50 [2] [µM] | GI50 [3] [µM] | selectivity index (SI) [4] | GI50 [4] [µM] | cytotoxic activity in words [5] | selectivity index (SI) [6] | GI50 [6] [µM] | selectivity index (SI) [7] | GI50 [7] [µM] | melting point [°C] | selectivity index (SI) [8] | GI50 [8] [µM] | selectivity index (SI) [9] | GI50 [9] [µM] | also measured
1 | Cc1cc(O)c(C=O)c2c1C(=O)Oc1c(C)c(O)c3c(c1O2)C(OC(C)C)OC3=O (stereo not shown) [compound 6, 8′-O-isopropyl-norstictic acid] | 0.73 | 59.3 | 4.48 | 9.65 | 43.2 | 0.86 | 50.2 | active against PC-03, HEP2, B16-F10, and UACC-62 cells | 33.8 | 1.28 | 0.86 | 50.1 | 185 | 5.56 | 7.78 | 7.0 | 6.2 | selectivity index (SI) [2, 11]: 4.5; selectivity index (SI), range ([5]; PC-03, HEP2, B16-F10, and UACC-62 cells vs NIH/3T3): 4.48 to 33.8; GI50 ([5]; PC-03, HEP2, B16-F10, and UACC-62 cells, read-out: GI50, range): 1.28 to 9.65 µM; selectivity index (SI) [8, 11]: 5.5
2 | CCCCCOC1OC(=O)c2c(O)c(C)c3c(c21)Oc1c(C=O)c(O)cc(C)c1C(=O)O3 (stereo not shown) [compound 4, 8′-O-n-pentyl-norstictic acid] | 3.69 | 15.5 | 1.03 | 55.4 | 57.2 | 1.50 | 38.2 | low biological activity | 6.53 | 8.77 | 0.75 | 76.2 | 175 | 1.19 | 48.2 | 1.51 | 37.8 | –
3 | CCCOC1OC(=O)c2c(O)c(C)c3c(c21)Oc1c(C=O)c(O)cc(C)c1C(=O)O3 (stereo not shown) [compound 2, 8′-O-n-propyl-norstictic acid] | 0.15 | 410 | – | > 600 | 63 | 0.13 | 470 | did not show activity against the tested tumor cells; also recorded: comparatively low activity against the cancerous cell lines | 2.03 | 30 | 0.43 | 140 | 183 | 0.94 | 70 | 1.2 | 50 | selectivity index (SI) ([6]; listed as n-propyl): 33.8; GI50 ([6]; listed as n-propyl): 1.28 µM
4 | CCC(C)OC1OC(=O)c2c(O)c(C)c3c(c21)Oc1c(C=O)c(O)cc(C)c1C(=O)O3 (stereo not shown) [compound 7, 8′-O-sec-butyl-norstictic acid] | 87.4 | 6.8 | 64.4 | 9.2 | 594 | 48.3 | 12.3 | – | 11.30 | 52.4 | 27.78 | 21.4 | 170 | 78.0 | 7.6 | 20.2 | 29.4 | effect on normal cells in words [3]: lowest effect on 3T3 cells; selectivity index (SI), range over all tumor cells [5]: 11.30–87.40; GI50 [5, 12]: 6.8 to 52.4 µM
5 | COc1cccc2c1C(=O)c1c(O)c3c(c(O)c1C2=O)C[C@@](O)(C(=O)CO)C[C@@H]3O[C@H]1C[C@H](N)[C@H](O)[C@H](C)O1 [Doxorubicin, reference compound] | 6.4 | 0.086 | 1.28 | 0.43 | 0.55 | 1.23 | 0.43 | – | 16.0 | 0.034 | 1.23 | 0.43 | – | 0.84 | 0.65 | 4.5 | 0.12 | selectivity index (SI) [10]: 1.2
6 | CCCCCCOC1OC(=O)c2c(O)c(C)c3c(c21)Oc1c(C=O)c(O)cc(C)c1C(=O)O3 (stereo not shown) [compound 5, 8′-O-n-hexyl-norstictic acid] | 5.76 | 9.53 | 0.97 | 56.3 | 54.9 | 7.66 | 7.16 | showed activity against MCF7, HT-29, PC-03, and HEP2 cells | 7.60 | 7.23 | 1.75 | 31.4 | 178 | 9.2 | 5.96 | 1.06 | 51.6 | GI50 ([5]; MCF7, HT-29, PC-03, and HEP2 cells, read-out: GI50, range): 5.96 to 9.53 µM
7 | CCCCOC1OC(=O)c2c(O)c(C)c3c(c21)Oc1c(C=O)c(O)cc(C)c1C(=O)O3 (stereo not shown) [compound 3, 8′-O-n-butyl-norstictic acid] | 47.15 | 13.3 | 13.88 | 45 | 625 | 16.34 | 38.3 | – | 98.11 | 6.37 | 22.21 | 28.2 | 169 | 78.77 | 7.94 | 54.1 | 11.5 | effect on normal cells in words [3]: lowest effect on 3T3 cells; selectivity index (SI), range over all tumor cells [5]: 13.88–98.11; GI50 [5, 12]: 6.37 to 45 µM
8 | Cc1cc(O)c(C=O)c2c1C(=O)Oc1c(C)c(O)c3c(c1O2)C(OC(C)(C)C)OC3=O (stereo not shown) [compound 8, 8′-O-tert-butyl-norstictic acid] | 0.6 | 64.2 | 0.42 | 90.3 | 38.5 | 0.28 | 139 | active only against PC-03 cells; also recorded: low biological activity | 5.0 | 7.6 | 0.6 | 63.3 | 196 | 0.66 | 57.8 | 0.57 | 67.1 | –
